Source: patent publication US20260146044A1, “AROMATIC COMPOUND, PHARMACEUTICAL COMPOSITION CONTAINING SAME, AND USE THEREOF” (Increland, priority 2023, published 2026)

Experiments:
[1] = tested on: secretion levels of IL-6 in PBMC cells; assay: Inhibition of R848-induced IL-6 secretion in PBMC (IL-6 ELISA); assay type: cell-based; conditions: human PBMC, 20 h compound pre-incubation, 24 h stimulation
Method: This experiment was carried out in RPMI 1640 medium containing 10% FBS/1% penicillin/streptomycin, with each of the compounds at an initial test concentration of 1 μM. The compound DMSO was dissolved to form a stock solution, which was gradiently diluted 4-fold with the culture medium to a 4× working solution concentration. The diluted solution was added to a 96-well plate with 50 μL per well. PBMC (batch No.: HPP20062307, Sichuan Hope Bio-tech Co., Ltd.) cells were counted, and diluted to a concentration of 2×10^6/mL. The diluted cells were added to the above compound-containing 96-well plate with 150 μL per well, fully mixed, and incubated in an incubator with 5% CO2 at 37° C. for 20 h. Then, R848 was further added until a final concentration of […], and the cells were further incubated in the incubator with 5% CO2 at 37° C. for additional 24 h. Then, after centrifugation at 2,000 rpm for 4 min, the supernatant was diluted 110×, and detected using an IL-6 ELISA kit. An OD450 value was read, and converted to an IL-6 concentration based on a standard curve, to calculate an IC50 value by fitting a dose-effect curve using GraphPad 5.0.

[2] = microsomes
Method: (§1) Blank incubation plates T60 and NCF60 were preheated for 10 min; liver microsome was diluted to 0.56 mg/mL in 100 mM phosphate buffer, 445 μL of the microsome working solution (0.56 mg/mL) was transferred to the preheated “incubation” plates T60 and NCF60, and then the incubation plates T60 and NCF60 were pre-incubated with continuous shaking at 37° C. for 10 min. 54 μL of the liver microsome was transferred to a blank plate, then 6 μL of a NAPDH cofactor was added to the blank plate, and then 180 μL of a quenching solution was added to the blank plate; 5 µL of a composite working solution (100 μM) was added to each of the microsome-containing incubation plates (T60 and NCF60), and the mixture was thoroughly mixed 3 times; 50 μL of a buffer was added to the NCF60 plate, and the mixture was thoroughly mixed 3 times. Timing was started; the plates were incubated with shaking at 37° C. for 60 min; and 180 μL of a quenching solution and 6 μL of the NAPDH cofactor were added to a quenching plate TO. The plates were ensured to be cooled to prevent evaporation. For the T60 plate, the mixture was thoroughly mixed 3 times, and 54 μL of the mixture was immediately transferred to the quenching plate at the time point of 0 min. Then, 44 μL of the NAPDH cofactor was added to the incubation plate (T60). Timing was started; and the plate was incubated with shaking at 37° C. for 60 min. At 5, 15, 30, 45, and 60 min, 180 μL of the quenching solution was added to the quenching plate, mixed once, and then 60 μL of sample was continuously transferred from the plate T60 to the quenching plate at each time point.
(§2) For NCF60, the mixture was mixed once, and at the time point of 60 min, 60 μL of sample was transferred from the NCF60 incubator to the quenching solution-containing quenching plate. All sampling plates were shaken for 10 min, then centrifuged at 4,000 rpm at 4° C. for 20 min. 80 µL of the supernatant was transferred to 240 μL of HPLC water, and mixed using a plate shaker for 10 min.

[3] = microsomes; remark: listed apart in the source
Method: as §1, §2

[4] = Metabolic stability in mouse liver microsome; conditions: liver microsomes
Method: as §1, §2

[5] = Metabolic stability in human liver microsome; conditions: liver microsomes
Method: as §1, §2

[6] = tested on: secretion levels of IL-6 in PBMC cells; assay: Inhibition of LPS+IL-1β-induced IL-6 secretion in PBMC (IL-6 ELISA); assay type: cell-based; conditions: human PBMC, 24 h compound pre-incubation, 20 h stimulation
Method: This experiment was carried out in RPMI 1640 medium containing 10% FBS/1% penicillin/streptomycin, with each of the compounds at an initial test concentration of 1 μM. The compound DMSO was dissolved to form a stock solution, which was gradiently diluted 5-fold with the culture medium to a 4× working solution concentration. The diluted solution was added to a 96-well plate with 50 μL per well. PBMC (batch No.: HPP20062307, Sichuan Hope Bio-tech Co., Ltd.) cells were counted, and diluted to a concentration of 2×10^6/mL. The diluted cells were added to the above compound-containing 96-well plate with 150 μL per well, fully mixed, and incubated in an incubator with 5% CO2 at 37° C. for 24 h. Then, LPS and […] were further added to final concentrations of 10 ng/mL and 20 ng/mL, respectively, and the cells were further incubated in the incubator with 5% CO2 at 37° C. for 20 h. Then, after centrifugation at 2,000 rpm for 4 min, the supernatant was diluted 110×, and detected using an IL-6 ELISA kit. An OD450 value was read, and converted to an IL-6 concentration based on a standard curve, to calculate an IC50 value by fitting a dose-effect curve using GraphPad 5.0.

[7] = Pharmacokinetic experiment on SD rats (iv and ig); assay type: in vivo; conditions: Sprague-Dawley, rat, plasma; for Cmax: read-out: Peak plasma concentration Cmax
Method: Pharmacokinetic experiment on SD rats: in this experiment, two administration modes: oral intragastric administration and tail vein injection were selected. Each of the compounds of the present patented invention was administered at an oral dose of 5 mg/kg at an administration volume of 10 mL/kg. […] Appropriate amounts of Solutol and H2O were proportionally added sequentially, and fully mixed ultrasonically by vortexing, to prepare a clear drug solution at 0.5 mg/mL. ICL004-protodrug was administered by intravenous injection at a dose of 1 mg/kg at an administration volume of 10 mL/kg. Right before use, an appropriate amount of the drug was accurately weighed, to prepare a final volume of 20% PEG 400 and 80% Saline. Appropriate amounts of PEG 400 and Saline were proportionally added sequentially, and fully mixed ultrasonically by vortexing, to prepare a clear drug solution at 0.1 mg/mL.
6 SD rats, each with body weight of 180-220 g, were randomly grouped into 2 groups. After fasting but with free access to water overnight, each […] in the first group was administered by gavage. 200 μL of blood was sampled from its eye socket into an anticoagulant tube respectively at each time point of 15 min, 30 min, 1 h, 2 h, 4 h, 6 h, 8 h, and 24 h after administration. Within one h, each of the blood samples was centrifuged at 10,000 rpm at 4° C. for 20 min (the sample was stored on an ice box prior to the centrifugation), and the supernatant (i.e., the plasma) was stored in a refrigerator at −20° C. for LC-MS/MS analysis. 200 μL of blood was sampled from the eye socket of each […] in the second group into an anticoagulant tube respectively at each time point of 5 min, 15 min, 30 min, 1 h, 2 h, 4 h, 8 h, and 24 h after administration by intravenous injection. Within one h, each of the blood samples was centrifuged at 10,000 rpm at 4° C. for 20 min (the blood sample was stored on an ice box prior to the centrifugation), and the supernatant, i.e., the plasma, was stored in a refrigerator at −20° C. for LC-MS/MS analysis.

[8] = Pharmacokinetic experiment on mice (iv and ig); assay type: in vivo; conditions: mouse, plasma, BALB/c Mice; for Cmax: read-out: Peak plasma concentration Cmax

Mouse liver microsome (t1/2, min) [2] [min] | Human liver microsome (t1/2, min) [3] [min] | AUC ([7]; iv, 1.00 mg/kg) [ng·h/mL] | AUC(0-inf) ([7]; iv, 1.00 mg/kg) [ng·h/mL] | Cmax ([7]; iv, 1.00 mg/kg) [ng/mL] | bioavailability ([7]; po, ig 5.00 mg/kg vs iv 1.00 mg/kg, read-out: Oral bioavailability Fobs (%)) [%] | AUC ([7]; po, ig, 5.00 mg/kg) [ng·h/mL] | AUC(0-inf) ([7]; po, ig, 5.00 mg/kg) [ng·h/mL] | Cmax ([7]; po, ig, 5.00 mg/kg) [ng/mL] | bioavailability ([8]; po, ig 3.00 mg/kg vs iv 1.00 mg/kg, read-out: Oral bioavailability Fobs (%)) [%] | AUC ([8]; po, ig, 3.00 mg/kg) [ng·h/mL] | AUC(0-inf) ([8]; po, ig, 3.00 mg/kg) [ng·h/mL] | Cmax ([8]; po, ig, 3.00 mg/kg) [ng/mL] | AUC ([8]; iv, 1.00 mg/kg) [ng·h/mL] | AUC(0-inf) ([8]; iv, 1.00 mg/kg) [ng·h/mL] | Cmax ([8]; iv, 1.00 mg/kg) [ng/mL] | SMILES | IC50 [1] [nM] | half-life at 1 µM [4] [min] | half-life at 1 µM [5] [min] | IC50 [6] [nM]
128.7 | 117.1 |  |  |  |  |  |  |  |  |  |  |  |  |  |  | COc1cc2nn([C@H]3CC[C@H](CN4CCC(c5cccc6c5c(C)nn6C5CCC(=O)NC5=O)CC4)CC3)cc2cc1NC(=O)c1cccc(C(F)(F)F)n1 (stereo partly shown) [TM-25] | 28 |  |  | 
 |  |  |  |  |  |  |  |  |  |  |  |  |  |  |  | Cn1c(=O)n(C2CCC(=O)NC2=O)c2cccc(C#CCOC3CCN(C[C@H]4CC[C@H](n5cc(NC(=O)c6cnn7ccc(N8C[C@H]9C[C@@H]8CO9)nc67)c(C(F)F)n5)CC4)CC3)c21 (stereo partly shown) [Positive compound, reference compound] | 38.5 | 29.4 | 39.4 | 38.4
 |  | 2250 | 2300 | 530 | 91.9 | 13800 | 10600 | 1100 | 92.1 | 135000 | 289000 | 12400 | 63100 | 104000 | 6800 | Cc1nn(C2CCC(=O)NC2=O)c2cccc(N3CCN(C[C@H]4CC[C@H](n5cc6cc(NC(=O)c7cnn8cccnc78)c(N7CCOCC7)cc6n5)CC4)CC3)c12 (stereo partly shown) [TM-33] | 13 | 46.9 | 77.9 | 10.2
